We go through one compound from article PMC8686256, “DZNep promotes mouse bone defect healing via enhancing both osteogenesis and osteoclastogenesis” (Stem Cell Research & Therapy, 2021).

One series concerns primary BMMs. As to the kind of experiment: CCK-8 cytotoxicity assay on BMMs. The class given is cell-based, mouse. How it is done: Primary BMMs were obtained from whole bone marrow of male 6-week-old C57BL/6 mice. In brief, cells were extracted from the tibiae and femurs bone marrow and suspended in complete α-MEM (α-MEM supplemented with 30 ng/ml M-CSF, 10% FBS, and 1% penicillin/streptomycin). Then, the cell cultures were kept in a humid environment at 37 °C with 5% CO2 until they reached 90% confluence. The cytotoxic effects of DZNep on BMMs were then determined by the CCK-8 kit. Specifically, the BMMs were seeded into 96-well plates in triplicate at the density of 8 × 10^3 cells/well in presence of 100μL complete α-MEM for 24 h. After that, the cells were treated with increasing concentration of DZNep (control, 3.125, 6.25, 12.5, 25, 50, 100, 200 nM) for 24, 48, and 96 h. After treatment, 100μL medium contained 10% CCK-8 buffer was added to the wells and incubated in the dark at 37 °C for 2 h. The absorbance was then detected at 450 nm wavelength (650 nm reference) on a microplate reader.
Background: Tetrazolium dyes change colour on reduction, which living cells bring about.

In series [1] the test system is BMMs. Description: RANKL-induced osteoclast differentiation, TRAP staining. The class given is cell-based, mouse. How it is done: To evaluate the role of DZNep on osteoclastogenesis, BMMs were seeded into, in triplicate, a 96-well plate at the density of 8 × 10^3 cells/well with complete α-MEM for one day. Afterward, the culture medium was replaced by the complete α-MEM containing different concentrations of DZNep (control, 3.125, 6.25, 12.5, and 25 nM) and RANKL (50 ng/ml) to stimulate osteoclast differentiation. Cells untreated with DZNep were included as the control group. Moreover, the BMMs treated with or without DZNep for various days were also analyzed. For EZH2 gene knockdown studies, the cells were transfected with virus constructed of different EZH2 short hairpin RNA (shRNA) and negative control shRNA by mixed with polybrene (final concentration of 10ug/ml) for 48 h. The transfection mixture was then replaced by complete α-MEM added with puromycin for 24 h, and BMMs were then seeded into a 96-well plate at the density of 1 × 10^4 cells/well with complete α-MEM. The culture medium was then replaced every 2 days until the matured osteoclasts could be observed in the plate. For Foxc1 inhibition experiment, the cells were separately transfected with negative control siRNA, negative control siRNA with DZNep, and Foxc1 small interfering RNA (siRNA) with DZNep and by mixed with transfection reagent and osteoclast culture medium. The transfection mixture was then replaced every 2 days until the matured osteoclasts could be observed in the plate. The plate was then washed by PBS 1 times and fixed with 4% paraformaldehyde for 15 min. TRAP staining was performed immediately without light at 37 °C for 30 min. An optical microscope (Olympus, Tokyo, Japan) was used to image the photographs, and the TRAP-positive cells with more than three nuclei were considered osteoclasts and were quantified the area and number using the ImageJ software (NIH, Bethesda, MD, USA).

The subject of series [2] is BMMs. As to the kind of experiment: Immunofluorescence of podosome actin belt. The format is cell-based, mouse. As to conditions: 25 nM, vs control. How it is done: BMMs in complete α-MEM with or without 25 nM DZNep were seeded in 6-well plates at a density of 1 × 10^5 cells/well and cultured for 6 days. Once the matured osteoclast could be observed, the plate was washed by PBS and then fixed with 4% paraformaldehyde. The 10 min 0.2% Triton X-PBS was then performed for permeabilizing. After three times washing by PBS, FITC-labeled phalloidin was added for 1 h in darkness to bounds with the cells F-actin ring. The nuclei were stained at RT for 5 min without light by 4′, 6-diamidino-2-phenylindole (DAPI). After the final PBS wash, the perimeter of the actin ring could be observed by the fluorescence microscope (Leica) and analyzed using ImageJ software (NIH, Bethesda, MD, USA).

The subject of a further series is primary BMSC. As to the kind of experiment: CCK-8 cytotoxicity on BMSC. As to conditions: 100 nM; 12, 48, and 96 h. The format is cell-based, mouse.
In a further series the test system is bone defect mice. As to the kind of experiment: Tibia cortical and trabecular bone defect mice model. The class given is in vivo, mouse. The text has this:
The tibia cortical and trabecular bone defect mice model was established to determine the bone healing effect of DZNep in vivo. Firstly, all mice (twelve 8-week-old C57/BL6 male mice (approximate weight 20 ± 2 g)) were anesthetized by 2% isoflurane, the right tibia was exposed, and muscles were dissociated. Then a pilot hole was first made with a burr drill point in the proximal tibia, but away from the growth plate to some extent. Then the hole was enlarged with a 1 mm […]. Afterward, the mice were average divided into two groups: (1) DZNep group (injection with 100 μg/kg DZNep); (2) Sham group (injection with 1 × PBS). Two days after operation, 1 × PBS for sham group and DZNep for treatment group were intraperitoneally injected every two days during next two week. All mice were finally euthanized after experiment, and whole tibia bones were separated. After fixed in 4% paraformaldehyde for 24 h, the 75% ethanol was then used to soak the specimens for further histological and radiographic analysis. High-resolution micro-CT (μCT-100, SCANCO Medical AG, Switzerland) was used to perform the micro-computed tomography (CT) scanning. […] For analysis bone mass of defect section, a region of defect section trabecular bone was contoured, starting from the first defect section level away from proximal end of the […] growth plate. Femoral trabecular bone was thresholded at 211 per mille. The indicators of bone microstructure (bone volume/tissue volume (BV/TV), trabecular thickness (Tb.Th), trabecula number (Tb.N), trabecula separation (Tb.Sp), and bone surface/ bone volume (BS/BV)) were measured by software (Version: 6.5-3, SCANCO Medical AG, Switzerland) through evaluating and analyzing the three-dimensional region of interest (ROI). After fixing in 4% paraformaldehyde for 48 h, the 10% EDTA was used to decalcify the fixed tibias for 21 days. Then the tissues were processed by dehydrating in different concentrations of ethanol, infiltrating with xylene, and embedding with paraffin. Hematoxylin and eosin (H&E) and TRAP staining were then performed on these prepared histological sections. As for immunofluorescent staining, slices were processed in a sequence of deparaffinization, hydration, antigen retrieval, permeabilization, blocking, primary antibody incubation (OCN, USA, Affinity; dilution 1:100), secondary antibody incubation, and nuclear staining finally. Immunohistochemical (IHC) staining was accomplished with antibodies against OCN (USA, Affinity; dilution 1:100). The specimens were observed and photographed under the high-quality microscope (Leica DM4000B). Each sample's number of osteoclasts and TRAP-positive multinucleated osteoclasts per field (Oc.S/BS) were calculated.

The mark [3] stands for this setting: RANKL, M-CSF, DZNep ≤25 nM, 5 days, vs control.
Setting [4] is: 100 μg/kg i.p. every two days, two weeks.

Consider `Nc1nccc2c1ncn2C1C=C(CO)C(O)C1O` (stereo not shown) [DZNep, 3-Deazaneplanocin], for which, in the series on primary BMMs (25 nM, CCK-8 at 24, 48, and 96 h), the “cytotoxicity on primary BMMs” value is “no cytotoxicity was found”. The IC50 with primary BMMs (Mus musculus, at 96 h, CCK-8, read-out: inhibitory concentration (IC50) against BMMs) amounted to 0.326 µM. Besides, the “number of osteoclasts, treatment at specific time points” value in the series with BMMs [1] (25 nM, day 3–5, vs control) is “increased the number of osteoclasts at the middle stage”. In the series with BMMs [1] (setting [3]), the “number of mature osteoclast nuclei” value was “increased in a dose-dependent manner significantly” and the “number of mature osteoclasts” value was “increased the number of mature osteoclasts in a DZNep dose-dependent manner”. Also, the “podosome actin belt formation of osteoclast” value in the series with BMMs [2] is listed as “promoted the podosome actin belt formation”. The “cytotoxicity on primary BMSC” value in the series with primary BMSC is reported as “no cytotoxicity was found”. Also, in the series with bone defect mice (100 μg/kg i.p.), the “osteocalcin (OCN) expression in vivo” value is “increased”. Besides, in the series with bone defect mice (setting [4]), the “BV/TV (micro-CT)” value is recorded as “prominently increased” and the “trabecular thickness (Tb.th) (micro-CT)” value is “prominently increased”. Besides, the “bone mineral density (X-ray)” value in the series on bone defect mice (100 μg/kg i.p. every two days, two weeks, vs control) is “more bone mineral density”. Further, the “bone repair (H&E-stained sections)” value in the series on bone defect mice (100 μg/kg i.p., vs control) is “more significant bone repair”. The “number of TRAP-positive multinucleated osteoclasts in vivo” value with bone defect mice (100 μg/kg i.p., vs vehicle-treated group) is on record as “more number of TRAP-positive multinucleated osteoclasts”.
